The values below come from PubChem BioAssay (NCI).

What all share (assay): NCI anticancer screen, dose series, 48 h
For experiment [1], the system named is MOLT-4 leukemia.
In experiment [2] the test system is NCI-H23 lung.
Experiment [3] concerns SNB-19 CNS.
For experiment [4], the system named is CCRF-CEM leukemia.
In experiment [5] the test system is SF-539 CNS.
In experiment [6] the test system is LOX IMVI melanoma.
In experiment [7] the test system is SK-OV-3 ovarian.
For experiment [8], the system named is SR leukemia.
Experiment [9] deals with RPMI-8226 leukemia.
In experiment [10] the test system is PC-3 prostate.

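Growth conditions: 96-well plates. Treatment: test compound, 48 hours, 5 concentrations. Analysis: linear interpolation between bracketing concentrations; unreached endpoints set to highest concentration. TGI: concentration producing complete growth inhibition.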

For `O=C(O)Cn1cnc2c(=O)[nH]c(Nc3ccccc3)nc21`, the TGI in [1], in experiment [2], in [3], in [4], in experiment [5] and in experiment [6] was over 100 µM each time. Besides, the TGI in [7], in experiment [8], in experiment [9] and in experiment [10] was over 100 µM each time.

As for `OC[C@H](O)[C@@H](OCc1ccccc1)[C@H](NCc1ccccc1)c1cccs1`, the TGI in [1], in [2], in experiment [3], in experiment [4], in experiment [5] and in [6] was over 100 µM in each case. In addition, the TGI in experiment [7], in [8], in experiment [9] and in [10] was over 100 µM throughout.

Consider `CCOP(=O)(OCC)C(Cc1cn(S(=O)(=O)c2ccc(C)cc2)cn1)C(=O)O` (stereo not given), for which the TGI in [1], in experiment [2], in experiment [3], in [4], in [5] and in [6] was over 100 µM in each case. The TGI in [7], in [8], in experiment [9] and in experiment [10] was over 100 µM each time.

On to `O=C(O)C(=Cc1ccc(-c2ccc([N+](=O)[O-])cc2)o1)C(=O)O`, for which the TGI in [1], in experiment [2], in [3], in experiment [4], in [5] and in [6] was over 100 µM throughout. In addition, the TGI in experiment [7], in [8], in experiment [9] and in [10] was over 100 µM throughout.

With `Cc1ccnc2[nH]c(-c3ccc(Cl)cc3)cc(=O)c12`, the TGI in [1], in [2], in [3], in experiment [4], in [5] and in experiment [6] was over 100 µM each time. The TGI in experiment [7] was over 62.1 µM; in experiment [8], 5.97 µM; in experiment [9], over 58.5 µM; in [10], over 100 µM.

On to `CN1C(=O)c2c(c3c4ccccc4n(C)c3c3c2c2ccccc2n3C)C1=O`, for which the TGI in experiment [1], in [2], in [3], in [4], in experiment [5] and in experiment [6] was over 100 µM in each case. Further, the TGI in experiment [7], in [8], in experiment [9] and in [10] was over 100 µM throughout.

Regarding `Cn1c(=Nc2ccccc2[N+](=O)[O-])sc2ccccc21`, the TGI in experiment [1], in experiment [2], in experiment [3], in [4], in experiment [5] and in [6] was over 100 µM in each case. Besides, the TGI in experiment [7] is 97.2 µM; in experiment [8], over 100 µM; in [9] it was over 100 µM; in [10], over 100 µM.

As to `O=C(NC12CC3CC(CC(C3)C1)C2)n1cnc2c(Cl)ncnc21`, the TGI in [1] was 52.2 µM; in [2], 65.4 µM; in experiment [3], over 100 µM; in experiment [4], 45.7 µM; in experiment [5], 81.7 µM; in experiment [6], 37.9 µM. Besides, the TGI in experiment [7] was 79.4 µM; in [8], 29 µM; in experiment [9], over 100 µM; in experiment [10], 66.6 µM.

For `Cc1cccc(N=Nc2ccc(O)c(CN(C)C)c2)c1`, the TGI was 91.6 µM in [1]; over 100 µM in [2]; over 100 µM in [3]; 4.69 µM in [4]; 41.6 µM in experiment [5]; 26.9 µM in [6]. The TGI in [7], in experiment [8], in experiment [9] and in experiment [10] was over 100 µM in each case.

On to `CN1CN(c2ccccc2)C2(CCN(C(=O)OC(C)(C)C)CC2)C1=O`, for which the TGI in experiment [1], in [2], in experiment [3], in experiment [4], in [5] and in [6] was over 100 µM in each case. In addition, the TGI in experiment [7], in experiment [8], in [9] and in experiment [10] was over 100 µM throughout.

On to `CC(C)(C)c1ccc(OCCOc2ccc(C(C)(C)C)cc2NC=O)c(NC=O)c1`, for which the TGI in [1] was 19.1 µM; in experiment [2], 40.7 µM; in experiment [3], over 100 µM; in [4], over 45.3 µM; in [5] it was 21.6 µM; in experiment [6], 19.2 µM. Further, the TGI in experiment [7] was over 100 µM; in [8], over 48 µM; in experiment [9], 13.6 µM; in experiment [10], over 100 µM.

Turning to `COc1ccc(/C=C2\CCC(C)(CN(C)C)C2=O)cc1Br` (stereo not given), the TGI in [1] is 58 µM; in experiment [2], over 95.1 µM; in experiment [3], 47.8 µM; in experiment [4] it was over 80.5 µM; in experiment [5] it was 43.5 µM; in experiment [6], 35.3 µM. Besides, the TGI came out at 70.5 µM in experiment [7], 45.7 µM in experiment [8], 58.4 µM in experiment [9] and 39.7 µM in [10].

As for `C=C1C(O)C2OC(=O)C(=C)C2C(OC(=O)/C(C)=C/C)CC2(C)OC2C2OC12` (stereo not given), the TGI is 31.2 µM in experiment [1]; 35.3 µM in experiment [2]; over 100 µM in experiment [3]; over 100 µM in experiment [4]; over 100 µM in [5]; 29.7 µM in experiment [6]. Also, the TGI in [7] is over 100 µM; in experiment [8] it was 24.5 µM; in experiment [9] it was 7.72 µM; in experiment [10] it was 54.4 µM.

In the case of `CCOC(=O)C1=C(C)NC(c2ccccc2)=C(C(=O)OCc2ccccc2)C1C#Cc1ccccc1` (stereo not given), the TGI in experiment [1], in [2], in experiment [3], in [4], in experiment [5] and in experiment [6] was over 100 µM in each case. The TGI in experiment [7], in [8], in [9] and in [10] was over 100 µM throughout.

`COc1ccc2cc(CNCCOCCOCCNCc3ccc4cc(OC)ccc4c3)ccc2c1`: the TGI in [1] was 2.44 µM; in [2], 3.02 µM; in experiment [3], 3.09 µM; in experiment [4], 1.24 µM; in experiment [5], 3.03 µM; in experiment [6] it was 1.22 µM. For the same compound, the TGI in experiment [7] is 3.28 µM; in experiment [8], 2.29 µM; in experiment [9], 2.03 µM; in [10], 3.16 µM.

In the case of `C1=Nc2ccc(cc2)-c2ccc(cc2)N=Cc2ccccc2OCc2cccc(n2)COc2ccccc21`, the TGI in experiment [1] was over 100 µM; in experiment [2] it was 45.9 µM; in experiment [3], 46.4 µM; in experiment [4], over 100 µM; in [5], over 66.3 µM; in experiment [6], over 100 µM. The TGI in experiment [7], in experiment [8], in experiment [9] and in experiment [10] was over 100 µM each time.
